Reference: patent US20220251081A1, “HETEROBICYCLIC INHIBITORS OF MAT2A AND METHODS OF USE FOR TREATING CANCER” (priority 2019, published 2022)
pIC50: −log10 of the molar value.

Molecular target: T1, MAT2A homodimer (Homo sapiens, UniProt P31153)
T1 construct: inferred from Ni sepharose purification and imidazole elution; made in house; host or cells: Sf9 insect cells, recombinant baculovirus (Bac to Bac, pFASTBAC1 vector)
Assay: Biochemical assay: inhibition of recombinant MAT2A homodimer (phosphate release, PiColorLock Gold)
Conditions: MAT2A IC50 score; read-out: Enzyme Inhibition
Description: Mat2A protein was expressed by recombinant baculovirus in SF9 infected cells using the Bac to Bac system cloned into the pFASTBAC1 vector (Invitrogen, Carlsbad, Calif.). Recombinant MAT2A was isolated from the cell lysate of 150 g of infected cells using HP Ni sepharose column chromatography. Recombinant MAT2A homodimer was eluted with 250 and 500 mM imidazole, and fractions containing MAT2A were identified by sodium dodecyl sulfate polyacrylamide gel electrophoresis and pooled.
For determination of the inhibitory potency of compounds against the MAT2A homodimer, protein was diluted to 4 μg/mL in assay buffer (50 mM Tris, pH 8.0, 50 mM KCl, 15 mM MgCl2, 0.3 mM EDTA, 0.005% [w/v] bovine serum albumin [BSA]). Test compound was prepared in 100% dimethyl sulfoxide (DMSO) at 50× the desired final concentration. A 1 μL volume of compound dilution was added to 40 μL of enzyme dilution and the mixture was allowed to equilibrate for 60 minutes at 25° C. The enzymatic assay was initiated by the addition of 10 μL of substrate mix (500 μM ATP, pH 7.0, 40 μM L-methionine in 1× assay buffer), and the mixture was incubated for a further 60 minutes at 25° C. The reaction was halted and the liberated phosphate released by the enzyme in stoichiometric amounts by the production of S-adenosyl methionine (SAM) was measured using the PiColorLock Gold kit (Innova Biosciences, UK). Absolute product amounts were determined by comparison to a standard curve of potassium phosphate buffer, pH 8.0.

T1 sequence (P31153 whole entry): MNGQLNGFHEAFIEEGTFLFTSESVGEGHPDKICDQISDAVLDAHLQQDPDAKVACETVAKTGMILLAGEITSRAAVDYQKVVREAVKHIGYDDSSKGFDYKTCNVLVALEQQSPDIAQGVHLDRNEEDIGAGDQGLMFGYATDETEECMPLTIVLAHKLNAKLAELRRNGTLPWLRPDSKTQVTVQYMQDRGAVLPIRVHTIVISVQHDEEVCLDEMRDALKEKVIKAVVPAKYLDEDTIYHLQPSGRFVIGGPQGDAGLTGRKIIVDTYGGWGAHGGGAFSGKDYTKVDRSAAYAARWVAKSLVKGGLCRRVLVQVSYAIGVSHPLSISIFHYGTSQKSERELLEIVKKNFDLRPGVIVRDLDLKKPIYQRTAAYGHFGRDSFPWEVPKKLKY

pIC50 | SMILES
6.00 to 7.00 | COc1ccc(-c2cc3cnc(NCC4CC4)nc3n(-c3ccccc3)c2=O)cc1 [Example 102]
6.00 to 7.00 | COc1ccc(-c2cc3cnc(NCC(F)(F)F)nc3n(-c3ccccc3)c2=O)cc1 [Example 103]
5.00 to 6.00 | COc1ccc(-c2cc3cnc(S(C)(=O)=O)nc3n(-c3ccccc3)c2=O)cc1 [Example 104]
5.00 to 6.00 | COc1ccc(-c2cc3cnc(S(C)(=O)=O)nc3n(-c3ccc(O)cc3)c2=O)cc1 [Example 105]
6.00 to 7.00 | COc1ccc(-c2cc3cnc(NCC(F)(F)F)nc3n(-c3ccncc3)c2=O)cc1 [Example 107]
5.00 to 6.00 | COc1ccc(-c2cc3cnc(SC)nc3n(-c3ccc(OC(F)(F)F)cc3)c2=O)cc1 [Example 108]
6.00 to 7.00 | COc1ccc(-c2cc3cnc(NCC(F)(F)F)nc3n(-c3ccc(OC(F)(F)F)cc3)c2=O)cc1 [Example 109]
6.00 to 7.00 | COc1ccc(-c2cc3cnc(SC)nc3n(-c3ccc(Cl)cc3)c2=O)cc1 [Example 110]
5.00 to 6.00 | COc1ccc(-c2cc3cnc(SC)nc3n(-c3ccc(C(F)(F)F)cc3)c2=O)cc1 [Example 111]
> 7.00 | COc1ccc(-c2cc3cnc(NCC(F)(F)F)nc3n(-c3ccc(C(F)(F)F)cc3)c2=O)cc1 [Example 112]
6.00 to 7.00 | COc1ccc(-c2cc3cnc(SC)nc3n(-c3ccc(OC)cc3)c2=O)cc1 [Example 113]
6.00 to 7.00 | COc1ccc(-n2c(=O)c(-c3ccc4ncccc4c3)cc3cnc(SC)nc32)cc1 [Example 114]
6.00 to 7.00 | COc1ccc(-c2cc3cnc(NCC(F)(F)F)nc3n(-c3ccc(C#N)cc3)c2=O)cc1 [Example 117]
> 7.00 | COc1ccc(-c2cc3cnc(NCC(F)(F)F)nc3n(-c3ccc4sccc4c3)c2=O)cc1 [Example 125, 8-(benzo[b]thiophen-5-yl)-6-(4-methoxyphenyl)-2-(2,2,2-trifluoroethylamino)pyrido[2,3-d]pyrimidin-7(8H)-one]
> 7.00 | COc1ccc(-c2cc3cnc(NCC(F)(F)F)nc3n(-c3ccc(Cl)cc3)c2=O)cc1 [Example 126]
6.00 to 7.00 | COc1ccc(-c2cc3cnc(NCC(F)(F)F)nc3n(-c3ccc4[nH]ccc4c3)c2=O)cc1 [Example 128]
> 7.00 | COc1ccc(-c2cc3ccc(NCC(F)(F)F)nc3n(-c3ccc(C4CC4)cc3)c2=O)cc1 [Example 132]
> 7.00 | COc1ccc(-c2cc3ccc(NCC(F)(F)F)nc3n(-c3ccc(Cl)cc3)c2=O)cc1 [Example 133]
> 7.00 | COc1ccc(-c2cc3ccc(NCC(F)(F)F)nc3n(-c3ccc(C4CC4)nc3)c2=O)cc1 [Example 134]
> 7.00 | CCOc1ccc2cc(-c3ccc(OC)cc3)c(=O)n(-c3ccc(C)nc3)c2n1 [Example 136, 7-ethoxy-3-(4-methoxyphenyl)-1-(6-methylpyridin-3-yl)-1,8-naphthyridin-2(1H)-one]
> 7.00 | CCOc1ccc2cc(-c3ccc4nn(C)cc4c3)c(=O)n(-c3ccc(C)nc3)c2n1 [Example 137]
> 7.00 | CCOc1ccc2cc(-c3ccc(OC)cc3)c(=O)n(-c3ccc(C(F)(F)F)cc3)c2n1 [Example 141]
> 7.00 | CCOc1ccc2cc(-c3ccc(OC)cc3)c(=O)n(-c3cnc(NC)nc3)c2n1 [Example 143]
> 7.00 | [2H]C([2H])([2H])Nc1ccc(-n2c(=O)c(-c3ccc4nn(C)cc4c3)cc3ccc(OCC)nc32)cn1 [Example 146]
> 7.00 | CCOc1ccc2cc(-c3ccc(OC)cc3)c(=O)n(-c3ccc(Cl)cc3)c2n1 [Example 154]
6.00 to 7.00 | CCOc1ccc2cc(-c3ccc(OC)cc3)c(=O)n(-c3ccc(OC(F)(F)F)nc3)c2n1 [Example 156]

pIC50 | SMILES
6.00 to 7.00 | CNC(=O)c1ccc(-c2cc3cnc(NCC(F)(F)F)nc3n(-c3ccc(OC)cc3)c2=O)cc1 [Example 170, 4-(8-(4-methoxyphenyl)-7-oxo-2-(2,2,2-trifluoroethylamino)-7,8-dihydropyrido[2,3-d]pyrimidin-6-yl)-N-methylbenzamide]
6.00 to 7.00 | COc1ccc(-n2c(=O)c(-c3ccc(OC)cn3)cc3cnc(NCC(F)(F)F)nc32)cc1 [Example 175]
6.00 to 7.00 | COc1ccc(-n2c(=O)c(-c3ccc(OC)c(C)c3)cc3cnc(NCC(F)(F)F)nc32)cc1 [Example 178]
6.00 to 7.00 | COc1ccc(-n2c(=O)c(-c3ccc(S(C)(=O)=O)cc3)cc3cnc(NCC(F)(F)F)nc32)cc1 [Example 179]
6.00 to 7.00 | COc1ccc(-n2c(=O)c(-c3ccncc3)cc3cnc(NCC(F)(F)F)nc32)cc1 [Example 181]
5.00 to 6.00 | COc1ccc(-n2c(=O)c(-c3ccc4nncn4c3)cc3cnc(NCC(F)(F)F)nc32)cc1 [Example 182]
6.00 to 7.00 | COc1ccc(-n2c(=O)c(-c3ccc(OC)c(F)c3)cc3cnc(NCC(F)(F)F)nc32)cc1 [Example 184]
> 7.00 | COc1ccc(-n2c(=O)c(-c3ccc4c(c3)C(C)(C)CO4)cc3cnc(NCC(F)(F)F)nc32)cc1 [Example 190]
6.00 to 7.00 | COc1ccc(-n2c(=O)c(-c3ccc4c(c3)OC(C)(C)O4)cc3cnc(NCC(F)(F)F)nc32)cc1 [Example 191]
> 7.00 | O=c1c(-c2ccc3nccn3c2)cc2cnc(NCC(F)(F)F)nc2n1-c1ccc(C2CC2)cc1 [Example 192]
> 7.00 | Cn1cc(-c2cc3cnc(NCC(F)(F)F)nc3n(-c3ccc(C4CC4)cc3)c2=O)ccc1=O [Example 193]
> 7.00 | CCOc1ccc2cc(-c3ccc(OC(F)F)cc3)c(=O)n(-c3ccc(OC(F)F)cc3)c2n1 [Example 198]
> 7.00 | CCOc1ccc2cc(-c3ccc(OCCN(C)C)cc3)c(=O)n(-c3ccc(OC(F)F)cc3)c2n1 [Example 206]
> 7.00 | CCOc1ccc2cc(-c3ccc4nn(CC(C)(C)C)cc4c3)c(=O)n(-c3ccc(Cl)cc3)c2n1 [Example 211]
> 7.00 | CCOc1ccc2cc(-c3ccc4nn(CC(C)(C)O)cc4c3)c(=O)n(-c3ccc(OC(F)(F)F)nc3)c2n1 [Example 212]
> 7.00 | Cn1cc(-c2cc3cnc(NCC(F)(F)F)nc3n(-c3ccc(-c4cc[nH]n4)cc3)c2=O)ccc1=O [Example 234, 8-(4-(1H-pyrazol-5-yl)phenyl)-6-(1-methyl-6-oxo-1,6-dihydropyridin-3-yl)-2-(2,2,2-trifluoroethylamino)pyrido[2,3-d]pyrimidin-7(8H)-one]
> 7.00 | [2H]C([2H])([2H])Oc1ccc(-c2cc3ccc(NCC(F)(F)F)nc3n(-c3ccc(OC([2H])([2H])[2H])cc3)c2=O)cc1 [Example 306]
> 7.00 | Cn1cc2cc(-c3cc4ccc(NCC(F)(F)F)nc4n(-c4ccc(C5CC5)nc4)c3=O)ccc2n1 [Example 311]
> 7.00 | CCNc1ccc2cc(-c3ccc4nn(C)cc4c3)c(=O)n(-c3ccc(N)nc3)c2n1 [Example 312]
> 7.00 | CN(C)c1ccc(-n2c(=O)c(-c3ccc4nn(C)cc4c3)cc3ccc(OCC(F)(F)F)nc32)cn1 [Example 315]
> 7.00 | COc1ccc(-n2c(=O)c(-c3ccc4nn(CCO)cc4c3)cc3ccc(OCC(F)(F)F)nc32)cc1 [Example 323]
> 7.00 | CCNc1ccc2nc(-c3ccc4nn(C)cc4c3)c(=O)n(-c3ccc(C4CC4)nc3)c2n1 [Example 336]
> 7.00 | CCNc1ccc2nc(-c3ccc4nn(C)cc4c3)c(=O)n(-c3ccc(C)nc3)c2n1 [Example 337]
> 7.00 | Cn1cc2cc(-c3nc4ccc(OCC(F)(F)F)nc4n(-c4ccc(Cl)cc4)c3=O)ccc2n1 [Example 339]
> 7.00 | CN(C)c1ccc(-n2c(=O)c(-c3ccc4nn(C)cc4c3)nc3ccc(OCC(F)(F)F)nc32)cn1 [Example 349, 4-(6-(dimethylamino)pyridin-3-yl)-2-(2-methyl-2H-indazol-5-yl)-6-(2,2,2-trifluoroethoxy)pyrido[2,3-b]pyrazin-3(4H)-one]
6.00 to 7.00 | Cn1cc2cc(-c3nc4ccc(OCC(F)(F)F)nc4n(-c4ccc(N)nc4)c3=O)ccc2n1 [Example 350, 4-(6-aminopyridin-3-yl)-2-(2-methyl-2H-indazol-5-yl)-6-(2,2,2-trifluoroethoxy)pyrido[2,3-b]pyrazin-3(4H)-one]
